Results on three compounds are retold here after patent US11717508B2, “Compounds, compositions, and methods for inhibiting bacterial growth” (priority 2016, dated 2023).

Entries after “also recorded” stand apart in the source; their conditions may differ. Read-outs that look alike come from different tables or passages of the source.

Broadly, the EC50 is the midpoint of the concentration-response curve. The term IC50 denotes the concentration at which inhibition is half-maximal.

The subject of series [1] is CDC1551(hspX′:GFP) reporter. Nature of the series: microbe, parasite or virus in culture. It is filed as cell-based, Mycobacterium tuberculosis. Particulars: for EC50: Mycobacterium tuberculosis, read-out: EC50 of inhibition of CDC1551(hspX′:GFP) reporter (dosR-dependent GFP) fluorescence.
Series [2] concerns Mtb. Nature of the series: microbe, parasite or virus in culture. It counts as cell-based. The conditions noted are these: Mycobacterium tuberculosis, read-out: growth inhibition EC50.
Series [3] deals with DosR regulon genes (dosR, hspX and tgs1). Nature of the series: NO and vitamin C sensitivity assays (RT-PCR). It counts as cell-based, Mycobacterium tuberculosis.
Series [4] deals with TAG accumulation. It counts as cell-based, Mycobacterium tuberculosis.
Series [5] concerns the target T1, DosS (Mycobacterium tuberculosis, UniProt P9WGK3). It is filed as biochemical.
Series [6] addresses T1, DosS. The series is described as follows: DosS autophosphorylation assay. It is filed as biochemical.
Series [7] addresses DosT (Mycobacterium tuberculosis, UniProt P9WGK1). Nature of the series: DosT autophosphorylation assay. It is filed as biochemical.
Series [8] relates to DosR regulon genes (dosR, hspX and tgs1). The series is described as follows: RT-PCR of DosR regulon genes under hypoxia. The conditions noted are these: 6 days. It counts as cell-based, Mycobacterium tuberculosis.
Series [9] addresses T1, DosS. The series is described as follows: LC-MS analysis of DosS reaction samples for heme-artemisinin adducts. It counts as biochemical. Particulars: DosS treated with artemisinin vs DMSO.
The test system of series [10] is Mtb Erdman. The conditions noted are these: ERDMAN, 360 h.

T1 sequence (P9WGK3 whole entry): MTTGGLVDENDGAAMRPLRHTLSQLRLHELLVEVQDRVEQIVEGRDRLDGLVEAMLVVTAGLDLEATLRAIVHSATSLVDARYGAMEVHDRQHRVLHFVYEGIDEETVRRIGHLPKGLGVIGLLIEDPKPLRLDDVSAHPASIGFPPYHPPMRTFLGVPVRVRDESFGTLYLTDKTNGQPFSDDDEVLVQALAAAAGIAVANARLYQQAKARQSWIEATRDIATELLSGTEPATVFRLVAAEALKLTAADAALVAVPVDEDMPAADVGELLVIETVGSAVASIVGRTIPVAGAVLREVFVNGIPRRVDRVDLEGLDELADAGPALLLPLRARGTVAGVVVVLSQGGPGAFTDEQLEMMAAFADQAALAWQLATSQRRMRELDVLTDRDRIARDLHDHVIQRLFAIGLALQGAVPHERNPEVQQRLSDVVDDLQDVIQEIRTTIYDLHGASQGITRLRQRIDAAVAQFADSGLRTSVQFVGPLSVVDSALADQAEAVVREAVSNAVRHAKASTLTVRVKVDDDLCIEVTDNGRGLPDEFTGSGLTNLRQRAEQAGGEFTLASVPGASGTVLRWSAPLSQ
Sequence of DosT (P9WGK1 whole entry): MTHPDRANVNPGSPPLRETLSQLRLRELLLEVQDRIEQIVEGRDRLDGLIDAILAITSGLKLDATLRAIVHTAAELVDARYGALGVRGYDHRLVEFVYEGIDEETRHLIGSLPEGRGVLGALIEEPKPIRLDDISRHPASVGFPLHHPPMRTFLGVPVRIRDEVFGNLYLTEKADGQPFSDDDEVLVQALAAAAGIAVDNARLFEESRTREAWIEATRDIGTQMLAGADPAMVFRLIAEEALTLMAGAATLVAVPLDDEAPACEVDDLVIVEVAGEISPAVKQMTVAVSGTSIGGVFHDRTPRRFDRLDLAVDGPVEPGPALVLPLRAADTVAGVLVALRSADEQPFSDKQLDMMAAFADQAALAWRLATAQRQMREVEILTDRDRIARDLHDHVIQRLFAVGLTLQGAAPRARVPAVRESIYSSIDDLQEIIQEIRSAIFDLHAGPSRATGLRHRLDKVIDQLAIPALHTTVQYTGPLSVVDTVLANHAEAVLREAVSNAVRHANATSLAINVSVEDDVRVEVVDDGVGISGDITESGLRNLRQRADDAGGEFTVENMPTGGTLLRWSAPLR

As for `C[C@@H]1CC(C)(C)C[C@]2(C1)NC(=O)NC2=O` (racemic) [HC102A, 7,7,9-trimethyl-1,3-diazaspiro[4.5]decane-2,4-dione], the “activity of compound regenerated by organic synthesis” value in series [1] was “confirmed to have the activity of the commercially sourced compounds”. Further, the EC50 in series [1] (6 days of treatment) was 12.4 µM; in [2] (6 days, optical density, unit given as M) it was more than 80 µM. Moreover, the “repression of tgs1 transcript following treatment with DETA-NONOate” value in series [3] (80 μM pretreatment 24 h, 50 μM DETA-NONOate 2 h) was determined as 3 fold. Also, in [3] (80 μM pretreatment 24 h, 2 mM vitamin C 2 h), the “repression of tgs1 transcript in vitamin C treated cells” value is 2 fold. Besides, the “inhibition of induction of DosR regulon (dosR, hspX, tgs1) by NO and vitamin C” value in series [3] (pretreatment 24 h, induction 2 h) is reported as “strongly inhibited the induction; also recorded: inhibited the induction of DosR regulon”. For the same compound, the “reduction in TAG accumulation” value in [4] (CDC1551, 40 μM, 6 days) amounted to 67%. The “effect on redox status of DosS heme” value in series [5] (UV-visible spectra vs DMSO control) is listed as “no impact on the redox status; also recorded: no effect in modulating redox status of DosS”. Also, in series [6] (1 hour incubation, read-out: IC50 of inhibition of DosS autophosphorylation), the IC50 was 1.9 µM. The “maximal inhibition of DosS autophosphorylation” value in series [6] (dose response) is given as approximately 60%. Moreover, the “impact on DosT autophosphorylation” value in series [7] (dose response, 1 hour) is “limited impact”.
On to `C[C@@H]1CC[C@H]2[C@@H](C)C(=O)O[C@@H]3O[C@]4(C)CC[C@@H]1[C@]32OO4` [HC101A, artemisinin, reference compound], for which, in series [8], the “inhibition of dosRS (real-time PCR)” value stood at 37 fold, the “inhibition of hspX (real-time PCR)” value is 51 fold and the “inhibition of tgs1 (real-time PCR)” value is listed as 166 fold. In series [4] (CDC1551, 40 μM, 6 days), the “reduction in TAG accumulation” value is given as 74%. Moreover, the “formation of heme-artemisinin adducts (LC-MS)” value in series [9] is given as “alkylates the sensor kinase heme to form heme-artemisinin adducts”.
For the compound `O=C(Nc1cccc(O)c1)c1cccc(NC(=O)c2cccs2)c1` [HC103A, N-[3-[(3 hydroxyphenyl)carbamoyl]phenyl]thiophene-2-carboxamide], the “activity of compound regenerated by organic synthesis” value in series [1] is on record as “confirmed to have the activity of the commercially sourced compounds”. The EC50 in series [1] ([…]) was 2.7 µM. Moreover, in [2] ([…]), the EC50 was more than 80 µM. In series [3], the “inhibition of induction of DosR regulon (dosR, hspX, tgs1) by NO and vitamin C” value is on record as “strongly inhibited the induction; also recorded: inhibited the induction of DosR regulon”; the “repression of tgs1 transcript following treatment with DETA-NONOate” value came to 50 fold; the “repression of tgs1 transcript in vitamin C treated cells” value was 3 fold. The “reduction in TAG accumulation” value in series [4] is 56%. The “effect on redox status of DosS heme” value in series [5] is listed as “no impact on the redox status; also recorded: no effect in modulating redox status of DosS”. Also, in series [6], the IC50 was found to be 0.5 µM and the “maximal inhibition of DosS autophosphorylation” value is approximately 90%. Also, the IC50 in [7] is approximately 5 µM. Further, the “reduction of Mtb viability when treated with 5 μM INH” value in series [10] is given as approximately 50%.
